Measurements: the supplement of paper PMC10307832

Key:
Experiment in all cases: relative viability (nuclei count vs DMSO), 5 days (fraction); higher = more cells survive
R406 + Palbociclib = compound: COc1cc(Nc2ncc(F)c(Nc3ccc4c(n3)NC(=O)C(C)(C)O4)n2)cc(OC)c1OC [R406] + CC(=O)c1c(C)c2cnc(Nc3ccc(N4CCNCC4)cn3)nc2n(C2CCCC2)c1=O [Palbociclib] (partner 0.5 µM)
Method in brief: (§1)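 Relative viability was taken as the ratio of nuclei in treated wells to nuclei in vehicle wells. Lung cancer cell lines in 1536-well plates received compounds by pin tool one day after seeding, either one drug alone or a fixed anchor-drug dose plus five library-drug doses (not always all listed) in √10 steps. Nuclei were counted on 4× images after 5 days of treatment, and values are medians of duplicate plates.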

Daporinad + Pictilisib = compound: O=C(/C=C/c1cccnc1)NCCCCC1CCN(C(=O)c2ccccc2)CC1 [Daporinad] + CS(=O)(=O)N1CCN(Cc2cc3nc(-c4cccc5[nH]ncc45)nc(N4CCOCC4)c3s2)CC1 [Pictilisib] (partner 1 µM)
Method in brief: as §1

R406 + Alpelisib = compound: COc1cc(Nc2ncc(F)c(Nc3ccc4c(n3)NC(=O)C(C)(C)O4)n2)cc(OC)c1OC [R406] + Cc1nc(NC(=O)N2CCC[C@H]2C(N)=O)sc1-c1ccnc(C(C)(C)C(F)(F)F)c1 [Alpelisib] (partner 2 µM)
Method in brief: as §1

Daporinad + Pemetrexed = compound: O=C(/C=C/c1cccnc1)NCCCCC1CCN(C(=O)c2ccccc2)CC1 [Daporinad] + Nc1nc2[nH]cc(CCc3ccc(C(=O)N[C@@H](CCC(=O)O)C(=O)O)cc3)c2c(=O)[nH]1 [Pemetrexed] (partner 0.2 µM)
Method in brief: as §1

Row | Cell Line | relative viability (R406 + Palbociclib; first compound 0.08 µM) | relative viability (R406 + Palbociclib; first compound 0.253 µM) | relative viability (R406 + Palbociclib; first compound 0.8 µM) | relative viability (R406 + Palbociclib; first compound 2.53 µM) | relative viability (R406 + Palbociclib; first compound 8 µM) | relative viability (Daporinad + Pictilisib; first compound 0.0005 µM) | relative viability (Daporinad + Pictilisib; first compound 0.001581 µM) | relative viability (Daporinad + Pictilisib; first compound 0.005 µM) | relative viability (Daporinad + Pictilisib; first compound 0.01581 µM) | relative viability (R406 + Alpelisib; first compound 0.08 µM) | relative viability (R406 + Alpelisib; first compound 0.253 µM) | relative viability (R406 + Alpelisib; first compound 0.8 µM) | relative viability (R406 + Alpelisib; first compound 2.53 µM) | relative viability (R406 + Alpelisib; first compound 8 µM) | relative viability (Daporinad + Pemetrexed; first compound 0.0005 µM) | relative viability (Daporinad + Pemetrexed; first compound 0.001581 µM) | relative viability (Daporinad + Pemetrexed; first compound 0.005 µM) | relative viability (Daporinad + Pemetrexed; first compound 0.01581 µM)
1 | NCI-H2405 | 0.52 | 0.561 | 0.517 | 0.364 | 0.2 | 0.505 | 0.485 | 0.5 | 0.377 | 0.751 | 0.756 | 0.795 | 0.466 | 0.205 | 1.17 | 1.14 | 1.03 | 0.413
2 | NCI-H3122 | 0.18 | 0.184 | 0.178 | 0.237 | 0.238 | 0.446 | 0.617 | 0.677 | 0.692 | 0.729 | 0.807 | 0.739 | 0.695 | 0.678 | 0.199 | 0.185 | 0.185 | 0.203
3 | PC-3 [JPC-3] | 0.518 | 0.591 | 0.582 | 0.549 | 0.45 | 0.703 | 0.987 | 0.824 | 0.659 | 0.988 | 1.15 | 1.13 | 0.902 | 0.699 | 1.05 | 1.14 | 1.34 | 1.07
4 | PC-14 | 0.58 | 0.666 | 0.735 | 0.346 | 0.146 | 0.656 | 0.726 | 0.876 | 0.735 | 0.947 | 1.01 | 1.01 | 0.664 | 0.636 | 0.0976 | 0.126 | 0.153 | 0.146
5 | RERF-LC-KJ | 1.04 | 1.19 | 1.07 | 0.883 | 0.86 | 0.58 | 0.529 | 0.525 | 0.695 | 0.87 | 1.07 | 0.971 | 0.738 | 0.597 | 0.465 | 0.482 | 0.587 | 0.568
6 | SK-LU-1 | 0.392 | 0.423 | 0.367 | 0.258 | 0.191 | 0.482 | 0.601 | 0.637 | 0.595 | 1.01 | 0.849 | 1.05 | 0.368 | 0.203 | 1.04 | 0.998 | 1.09 | 0.941
7 | SK-MES-1 | 0.313 | 0.297 | 0.307 | 0.259 | 0.192 | 0.296 | 0.4 | 0.345 | 0.306 | 0.749 | 0.964 | 0.957 | 0.414 | 0.406 | 1.04 | 0.816 | 0.955 | 0.64
8 | SW 1573 | 0.402 | 0.364 | 0.467 | 0.32 | 0.127 | 0.524 | 0.552 | 0.524 | 0.36 | 0.753 | 1.02 | 0.739 | 0.673 | 0.494 | 0.798 | 0.74 | 0.7 | 0.461
9 | UMC-11 | 0.314 | 0.339 | 0.35 | 0.312 | 0.239 | 0.908 | 0.668 | 0.928 | 0.993 | 0.969 | 1.06 | 1.15 | 0.89 | 0.386 | 0.746 | 0.83 | 0.847 | 0.773
